Measurements from patent US20100003217A1, “Compounds and Pharmaceutical Compositions for the Treatment of Viral Infections” (priority 2008, published 2010).
Values joined by “and” are separate entries in the source; they are usually repeats but may differ in a detail not shown here. Equal entries are not always repeated. Blank lines part the entries; values can stand above or below the compound they belong to.

Tested on: human primary hepatocytes
Experiment: Metabolic disposition of [^14C]-Compound 1 and [^14C]-2′-C-methyl guanosine in human primary hepatocytes (incubation medium, cellular extracts, nucleotide levels)
Assay type: in vitro ADME
Method: Primary hepatocytes: Freshly isolated cells from animal and human liver were obtained in suspension on ice. Cells were pelleted by centrifugation at 70-75×g (rat) or 95-90×g (monkey and human) and resuspended at 0.8 million cells per mL of platting medium (William's E supplemented with 5% FBS, 0.5% penicillin-streptomycin, 1% L-glutamine, 4 μg/mL insulin and 1 μM dexamethasone). Multi-well collagen I-coated plates (rat tail collagen type I; 12- or 6-well) were then seeded by addition of 1 mL (12-well; 0.8 million cells/well) or 2 mL (6-well; 1.6 million cells/well) of cell suspension. The plates were gently shaken to evenly distribute the cells and placed in an incubator at 37° C. for approximately 4 to 6 hours to allow cells to attach. Once cells were attached, the platting medium was removed and replaced with hepatocyte culture medium (William's E supplemented with penicillin-streptomycin, 1% L-glutamine, 1% insulin-transferrin-selenium and 0.1 μM dexamethasone). Cells were left overnight in an incubator at 37° C. to acclimatize to culture and the medium.
Hepatocyte incubations with radiolabeled Compound 1 and 2′-C-methyl guanosine, both labeled in the C-8 position of the guanine moiety, were conducted at a final volume of 2.0 mL hepatocyte culture medium/well ([…]). Culture medium from overnight incubation of cells was removed and replaced with fresh medium, pre-warmed to 37° C., containing 1 or 10 μM [^14C]-Compound 1 ([…]) or [^14C]-2′-C-methyl guanosine (127 DPM/μmol) from a stock solution in DMSO (final DMSO concentration was 0.1%) or 50% ethanol (final ethanol concentration was 0.2%). After 1, 4, 8 and 24 hours, 0.5-1.0 mL of incubation medium was removed and stored at −20° C. until analysis (described below). The remaining medium was discarded and cell monolayers were carefully washed two times with ice-cold PBS. Following the last wash, all PBS was carefully removed and 1.0 mL of extraction solution (ice-cold 70% methanol) added. Cells were scrapped off and suspended in the extraction solution, transferred to 2 mL polypropylene microfuge tubes and intracellular contents extracted overnight at −20° C.
Preliminary identification of putative metabolites was conducted by comparing the retention time of observed metabolites in incubation medium and cellular extracts with retention times obtained with chemically synthesized standards using the chromatography conditions described below. Further identification of 2′-C-methyl guanosine nucleotides (mono-, di- and triphosphate) was carried out by incubating cellular extract samples with alkaline phosphatase (10 units for 60 min at 37° C.) and comparing the HPLC retention times of the resulting nucleosides with that of authentic 2′-C-methyl guanosine.
Cellular extracts were prepared by centrifugation at 16,000 RCF using an Eppendorf microcentrifuge (Eppendorf, Model 5415D) for 10 min to remove cellular debris. An aliquot of 5-10 μL of the supernatant was added to 5 mL of EcoLite™ (MP, Irvine, Calif.) liquid scintillation cocktail and radioactivity measured by liquid scintillation counting (LSC) using a Beckman Coulter LS6500 multipurpose liquid scintillation counter (Beckman Instruments, Fullerton, Calif.). The remaining sample was then dried using a Labconco refrigerated centrivap concentrator (Labconco, Kansas City, Mo.). Dry extracts were reconstituted in 120 μL of HPLC-grade water and centrifuged at 16,000 RCF using an Eppendorf microcentrifuge for 10 min. Prior to HPLC analysis (described below), radioactivity of the concentrated extracts was measured by LSC using 5 μL aliquots. Extraction recovery was then determined by comparing total radioactivity in extracts before and after drying. The remaining extract was then analyzed by HPLC with online radioactivity detection using a Flow Scintillation Analyzer Radiomatic™ 515TR. Radioactivity in the separated components was quantified by integrating the peaks using Flo-One™ Software (Perkin Elmer Life Sciences). […]

[1] = human hepatocytes (Hu759, Hu775), 10 μM [^14C]-2′-C-methyl guanosine, 8 h
[2] = human hepatocytes (Hu759, Hu775), 10 μM [^14C]-2′-C-methyl guanosine, 24 h
[3] = human hepatocytes (Hu759, Hu775), 10 μM [^14C]-Compound 1, 1 h
[4] = human hepatocytes (Hu759, Hu775), 10 μM [^14C]-Compound 1, 4 h
[5] = human hepatocytes (Hu759, Hu775), 10 μM [^14C]-Compound 1, 8 h
[6] = human hepatocytes (Hu759, Hu775), 10 μM [^14C]-Compound 1, 24 h
[7] = human hepatocytes (Hu775), 1 μM [^14C]-Compound 1, 0 h
[8] = human hepatocytes (Hu775), 1 μM [^14C]-Compound 1, 1 h
[9] = human hepatocytes (Hu775), 1 μM [^14C]-Compound 1, 8 h
[10] = human hepatocytes (Hu775), 1 μM [^14C]-Compound 1, 24 h
[11] = human hepatocytes (lots Hu759, Hu775), 10 μM [^14C]-Compound 1, 0 h
[12] = human hepatocytes (lots Hu759, Hu775), 10 μM [^14C]-Compound 1, 1 h
[13] = human hepatocytes (lots Hu759, Hu775), 10 μM [^14C]-Compound 1, 4 h
[14] = human hepatocytes (lots Hu759, Hu775), 10 μM [^14C]-Compound 1, 8 h
[15] = human hepatocytes (lots Hu759, Hu775), 10 μM [^14C]-Compound 1, 24 h
[16] = human hepatocytes Hu775, 1 μM [^14C]-2′-C-methyl guanosine, 1 h
[17] = human hepatocytes Hu775, 1 μM [^14C]-2′-C-methyl guanosine, 8 h
[18] = human hepatocytes Hu775, 1 μM [^14C]-2′-C-methyl guanosine, 24 h

metabolites observed in cellular extracts (% of total radioactivity) (human hepatocytes (Hu759, Hu775), 10 μM [^14C]-2′-C-methyl guanosine, 1 h): 97.1% and 94.9% | metabolites observed in cellular extracts (% of total radioactivity) (human hepatocytes (Hu759, Hu775), 10 μM [^14C]-2′-C-methyl guanosine, 4 h): 87.3% and 77.3% | metabolites observed in cellular extracts (% of total radioactivity) [1]: 73.9% and 61.4% | metabolites observed in cellular extracts (% of total radioactivity) [2]: 52.4% and 40.2% | metabolites observed in cellular extracts (% of total radioactivity) [3]: 3.69% and 3.75% | metabolites observed in cellular extracts (% of total radioactivity) [4]: 4.20% and 3.10% | metabolites observed in cellular extracts (% of total radioactivity) [5]: 7.52% and 5.89% | metabolites observed in cellular extracts (% of total radioactivity) [6]: 10.3% and 9.06% | metabolites observed in medium (% of total radioactivity) [7]: BLD^a | metabolites observed in cellular extracts (% of total radioactivity) [8]: BLD^a | metabolites observed in medium (% of total radioactivity) [8]: BLD | metabolites observed in cellular extracts (% of total radioactivity) [9]: 4.34% | metabolites observed in medium (% of total radioactivity) [9]: 9.20% and 9.22% | metabolites observed in cellular extracts (% of total radioactivity) [10]: 9.05% | metabolites observed in medium (% of total radioactivity) [10]: 39% and 38.7% | metabolites observed in medium (% of total radioactivity) [11]: BLD^b and BLD | metabolites observed in medium (% of total radioactivity) [12]: BLD and BLD^a | metabolites observed in medium (% of total radioactivity) [13]: 1.7% and 1.6% | metabolites observed in medium (% of total radioactivity) [14]: 4.6% and 7% | metabolites observed in medium (% of total radioactivity) [15]: 22.1% and 29% | Major metabolites observed in cellular extracts (% of total radioactivity) [16]: 94.6 % of total radioactivity | Major metabolites observed in cellular extracts (% of total radioactivity) [17]: 65.8 % of total radioactivity | Major metabolites observed in cellular extracts (% of total radioactivity) [18]: 41.3 % of total radioactivity
SMILES: C[C@@]1(O)[C@H](O)[C@@H](CO)O[C@H]1n1cnc2c(=O)[nH]c(N)nc21 [2′-C-methyl guanosine, 9-(2-C-methyl-β-D-ribofuranosyl)guanine, reference compound]

metabolites observed in cellular extracts (% of total radioactivity) [1]: 1.89% and 1.11% | metabolites observed in cellular extracts (% of total radioactivity) [2]: 3.82% and 3.41% | metabolites observed in cellular extracts (% of total radioactivity) [3]: 6.44% and 8.77% | metabolites observed in cellular extracts (% of total radioactivity) [4]: 5.70% and 5.54% | metabolites observed in cellular extracts (% of total radioactivity) [5]: 7.99% and 4.44% | metabolites observed in cellular extracts (% of total radioactivity) [6]: 5.38% and 12.8% | metabolites observed in medium (% of total radioactivity) [7]: BLD | 2′-C-methyl guanosine nucleotide levels in cellular extracts [8]: 2.40 pmol/million cells | metabolites observed in cellular extracts (% of total radioactivity) [8]: 5.45% | metabolites observed in medium (% of total radioactivity) [8]: BLD | 2′-C-methyl guanosine nucleotide levels in cellular extracts [9]: 2.10 pmol/million cells | metabolites observed in cellular extracts (% of total radioactivity) [9]: 3.60% | metabolites observed in medium (% of total radioactivity) [9]: 10.4% | 2′-C-methyl guanosine nucleotide levels in cellular extracts [10]: 5.80 pmol/million cells | metabolites observed in cellular extracts (% of total radioactivity) [10]: 6.41% | metabolites observed in medium (% of total radioactivity) [10]: 8% and 8.29% | metabolites observed in medium (% of total radioactivity) [11]: BLD | metabolites observed in medium (% of total radioactivity) [12]: 4.4% and 0.5% | metabolites observed in medium (% of total radioactivity) [13]: 3.9% and 4.5% | metabolites observed in medium (% of total radioactivity) [14]: 5.1% and 7.2% | metabolites observed in medium (% of total radioactivity) [15]: 4.7% and 7.1% | 2′-C-methyl guanosine nucleotide levels in cellular extracts (human hepatocytes Hu759, 10 μM [^14C]-2′-C-methyl guanosine, 0 h): 0 pmol/million cells | 2′-C-methyl guanosine nucleotide levels in cellular extracts (human hepatocytes Hu759, 10 μM [^14C]-2′-C-methyl guanosine, 8 h): 9.00 pmol/million cells | 2′-C-methyl guanosine nucleotide levels in cellular extracts (human hepatocytes Hu759, 10 μM [^14C]-2′-C-methyl guanosine, 24 h): 23.0 pmol/million cells | 2′-C-methyl guanosine nucleotide levels in cellular extracts (human hepatocytes Hu759, 10 μM [^14C]-Compound 1, 0 h): 0 pmol/million cells | 2′-C-methyl guanosine nucleotide levels in cellular extracts (human hepatocytes Hu759, 10 μM [^14C]-Compound 1, 1 h): 4.00 pmol/million cells | 2′-C-methyl guanosine nucleotide levels in cellular extracts (human hepatocytes Hu759, 10 μM [^14C]-Compound 1, 4 h): 15.0 pmol/million cells | 2′-C-methyl guanosine nucleotide levels in cellular extracts (human hepatocytes Hu759, 10 μM [^14C]-Compound 1, 8 h): 25.0 pmol/million cells | 2′-C-methyl guanosine nucleotide levels in cellular extracts (human hepatocytes Hu759, 10 μM [^14C]-Compound 1, 24 h): 28.0 pmol/million cells | 2′-C-methyl guanosine nucleotide levels in cellular extracts [18]: 1.50 pmol/million cells | Major metabolites observed in cellular extracts (% of total radioactivity) [18]: 3.39 % of total radioactivity | 2′-C-methyl guanosine nucleotide levels in cellular extracts (human hepatocytes Hu775, 10 μM [^14C]-2′-C-methyl guanosine, 0 h): 0 pmol/million cells | 2′-C-methyl guanosine nucleotide levels in cellular extracts (human hepatocytes Hu775, 10 μM [^14C]-2′-C-methyl guanosine, 1 h): 2.80 pmol/million cells | 2′-C-methyl guanosine nucleotide levels in cellular extracts (human hepatocytes Hu775, 10 μM [^14C]-2′-C-methyl guanosine, 4 h): 4.00 pmol/million cells | 2′-C-methyl guanosine nucleotide levels in cellular extracts (human hepatocytes Hu775, 10 μM [^14C]-2′-C-methyl guanosine, 8 h): 4.90 pmol/million cells | 2′-C-methyl guanosine nucleotide levels in cellular extracts (human hepatocytes Hu775, 10 μM [^14C]-2′-C-methyl guanosine, 24 h): 16.0 pmol/million cells | 2′-C-methyl guanosine nucleotide levels in cellular extracts (human hepatocytes Hu775, 10 μM [^14C]-Compound 1, 0 h): 0 pmol/million cells | 2′-C-methyl guanosine nucleotide levels in cellular extracts (human hepatocytes Hu775, 10 μM [^14C]-Compound 1, 1 h): 10.3 pmol/million cells | 2′-C-methyl guanosine nucleotide levels in cellular extracts (human hepatocytes Hu775, 10 μM [^14C]-Compound 1, 4 h): 17.1 pmol/million cells | 2′-C-methyl guanosine nucleotide levels in cellular extracts (human hepatocytes Hu775, 10 μM [^14C]-Compound 1, 8 h): 21.9 pmol/million cells | 2′-C-methyl guanosine nucleotide levels in cellular extracts (human hepatocytes Hu775, 10 μM [^14C]-Compound 1, 24 h): 121 pmol/million cells
SMILES: C[C@@]1(O)[C@H](O)[C@@H](COP(=O)(O)O)O[C@H]1n1cnc2c(=O)[nH]c(N)nc21 [Compound 5, [(2R)-2-methyl-β-D-ribofuranosyl]guanine 5′-monophosphate]
2′-C-methyl guanosine nucleotide levels in cellular extracts [7]: BLD^a (BLD = below limit of detection (0.02 pmol/million cells)) | 2′-C-methyl guanosine nucleotide levels in cellular extracts (human hepatocytes Hu759, 10 μM [^14C]-2′-C-methyl guanosine, 1 h): BLD^a (BLD = below limit of detection (0.02 pmol/million cells)) | 2′-C-methyl guanosine nucleotide levels in cellular extracts (human hepatocytes Hu759, 10 μM [^14C]-2′-C-methyl guanosine, 4 h): BLD (BLD = below limit of detection (0.02 pmol/million cells)) | 2′-C-methyl guanosine nucleotide levels in cellular extracts (human hepatocytes Hu775, 1 μM [^14C]-2′-C-methyl guanosine, 0 h): BLD (BLD = below limit of detection (0.02 pmol/million cells)) | 2′-C-methyl guanosine nucleotide levels in cellular extracts [16]: BLD (BLD = below limit of detection (0.02 pmol/million cells)) | Major metabolites observed in cellular extracts (% of total radioactivity) [16]: BLD^a (BLD = below limit of detection (30 DPM)) | 2′-C-methyl guanosine nucleotide levels in cellular extracts [17]: BLD (BLD = below limit of detection (0.02 pmol/million cells)) | Major metabolites observed in cellular extracts (% of total radioactivity) [17]: BLD (BLD = below limit of detection (30 DPM))
